Reference: patent publication US8110655B2, “Method to promote hair growth and/or delay or treat hair loss by administering a TGF-β antagonist or inhibitor” (Auxagen, Inc., priority 2006, dated 2012)
Entries after “also recorded” stand apart in the source; their conditions may differ.

How the values were obtained:
[1] = test system: full-thickness burn wounds on pig skin; assay: Hair growth in full-thickness pig skin burn wound model; format: in vivo, pig (Yorkshire strain); conditions: for hair growth, % of the original pre-burn area: topical, full-thickness burn, postburn day 30
Source text: TGF-β peptantagonists with amino acid sequences corresponding to residues 41-65 of TGF-β1 (SEQ ID NO: 8) and TGF-β2 (SEQ ID NO: 9), and TGF-β peptantagonist 6-β1^25 (SEQ ID NO: 7), which have additional 6 glutamate residues at the N-termini were synthesized and purified as described previously. Sterile IntraSite gel was obtained from Smith and Nephew Medical, Ltd. (UK) and mixed with TGF-β peptantagonists in phosphate-buffered saline at a ratio of 3:1 (v/v).
Female pigs (Yorkshire strain, house inbred and specific pathogen-free) weighing 20-25 kg were used in the experiments. The pigs were housed in individual rooms. They were fed standard laboratory chow and water ad libitum. All study protocols were reviewed and approved by the respective institutional animal care committees.
Four pigs weighing 20-25 kg were anesthetized by intramuscular injection of ketamine (5 mg/kg), strenil (cazaporonum) (20 mg/kg), and atropine ([…]). Six uniform burn wounds (110° C., 30 s) were then made symmetrically on the back of each pig using a modified soldering iron with a flat contact area of 20 cm^2. […] After wounding, IntraSite gels containing 6-E-β1^25 and buffer vehicle (as control) were applied to the pig burn wounds. All wounds were dressed with paraffin gauze. TGF-β peptantagonist gel or control gel was applied to the wounds every 2 days for the first 10 days and twice a week for the next 30 days. All wounds were cleaned and measured before each application of the IntraSite gel.
Hair growth was assessed by measuring hair number and hair length in the burn lesion and around the lesion area. Hair growth was monitored every 2 days for the first 10 days and twice a week for 30 more days. Hair growth expressed as a percent of the original wound size was calculated.
The pig model is commonly used in skin injury (e.g., burn) experiments because porcine skin is anatomically very similar to human skin. It was used to determine the ability of 6-E-β1^25 peptantagonist to rescue or restore hair follicles and to promote hair growth in a standardized burn injury. Four pigs weighing 20-25 kg were anesthetized by intramuscular injection of ketamine (5 mg/kg). A soldering iron with a flat contact area of ˜20 cm^2 was used to generate full-thickness burn wounds (110° C., 30 s) at standard sites on the skin of the back. Six thermal burns (three on each side) were created on each pig. After wounding, two lesions were treated with a thin layer of IntraSite gel containing 6-E-β1^25 (SEQ ID NO: 7) (0.15 and 0.6 mM); two received gel alone and two received no topical applications. All wounds were then bandaged and protected from potential contact irritation with a fixed frame. 6-E-β1^25 (SEQ ID NO: 7) and vehicle gels were applied every 2 days for the first 10 days and twice a week for the next 30 days, at which time hair growth was measured and photographed. Each animal served as its own control. […] At 0.15 and 0.6 mM, 6-E-β1^25 (SEQ ID NO: 7) promoted hair growth of 5-10 and 30-40% of the original pre-burn area, respectively.

[2] = test system: TGF-β; assay: TGF-β antagonist activity of C44S/C48S variants (test not specified); conditions: C44S/C48S versions versus parent peptides
Source text: In another embodiment of the invention variants of peptantagonists β3^25 (41-65) (SEQ ID NO: 4), β2^25 (41-65) (SEQ ID NO: 5), and β3^25 (41-65) (SEQ ID NO: 6), are provided in which cysteine-44 and cysteine-48 were replaced by serine residues.

[3] = test system: mink lung epithelial cells; conditions: mink lung epithelial cells and other cell types; U.S. Pat. No. 6,500,920; cited from earlier work
[4] = test system: PAI-1; conditions: mink lung epithelial cells and other cell types; U.S. Pat. No. 6,500,920; cited from earlier work
[5] = test system: TGF-β receptors in mink lung epithelial cells; conditions: earlier finding of the inventors (U.S. Pat. No. 6,500,920); cited from earlier work
[6] = Stability in solution / in IntraSite gel during storage; conditions: C44S/C48S versions versus parent peptides
Method: One milliliter of sterile 3 mM each of TGF-β peptantagonist 6-E-β1^25 (SEQ ID NO: 7), in phosphate-buffered saline (PBS) or 1 ml of sterile PBS (vehicle) was vigorously mixed with 3 ml of IntraSite gel using two 10 ml syringes connected with a three-way connector.

Substance	TGF-β antagonist activity compared with the cysteine-containing peptantagonists [2]	block of TGF-β-induced growth inhibition [3]	block of TGF-β-induced expression of PAI-1 [4]	inhibition of binding of radiolabeled TGF-β1, TGF-β2 and TGF-β3 to TGF-β receptors [5]	also measured
6-E-β1^25: β1^25 C44S/C48S derivitized with 6 glutamate at the N-terminus (EEEEEEANFSLGPSPYIWSLDTQYSKVLALY; six N-terminal glutamates; listed as Homo Sapiens)					hair growth, % of the original pre-burn area ([1]; 0.15 mM in IntraSite gel): 5-10%; hair growth, % of the original pre-burn area ([1]; 0.6 mM in IntraSite gel): 30-40%; promotion of hair growth (effective concentrations, dose dependence) ([1]; 0.15 and 0.6 mM in IntraSite gel): effective in promoting hair growth; also recorded: promote hair growth in a dose-dependent manner; hair growth in the area surrounding the burn wound ([1]; 0.15 and 0.6 mM, topical gel): promoted hair growth in the area surrounding the burn wound; re-epithelialization and hair growth of treated wounds ([1]; postburn day 30, topical gel): exhibited re-epithelialization and hair growth
NH2-ANFSLGPSPYIWSLDTQYSKVLALY-COOH (H-ANFSLGPSPYIWSLDTQYSKVLALY-OH; listed as Homo Sapiens) [β1^25 C44S/C48S, variant of β1^25 (41-65) in which cysteine-44 and cysteine-48 were replaced by serine residues]	the same TGF-β antagonist activity				
β1^25 (41-65): chemically synthesized peptide corresponding to the 41st to 65th amino acid residues of TGF-β1		block	block	inhibit	
β2^25 (41-65): chemically synthesized peptide corresponding to the 41st to 65th amino acid residues of TGF-β2 (ANFCAGACPYLWSSDTQHSRVLSLY; listed as Homo Sapiens)		block	block	inhibit	
β2^25 C44S/C48S: variant of β2^25 (41-65) in which cysteine-44 and cysteine-48 were replaced by serine residues (ANFSAGASPYLWSSDTQHSRVLSLY; listed as Homo Sapiens)	the same TGF-β antagonist activity				stability in solution during storage [6]: better stability in solution during storage
β3^25 (41-65): chemically synthesized peptide corresponding to the 41st to 65th amino acid residues of TGF-β3 (ANFCSGPCPYLRSADTTHSTVLGLY; listed as Homo Sapiens)		block	block	inhibit	
β3^25 C44S/C48S: variant of β3^25 (41-65) in which cysteine-44 and cysteine-48 were replaced by serine residues (ANFSSGPSPYLRSADTTHSTVLGLY; listed as Homo Sapiens)	the same TGF-β antagonist activity				stability in solution during storage [6]: better stability in solution during storage
